Reference: US20040053234A1, “Polynucletides that control delta-6 desaturase genes and methods for identifying compounds for modulating delta-6 desaturase” (priority 2000, published 2004)

Tests used:
[1] = molecular target: T1, rD6D-1 (without V5/6xHis tags) (Rattus norvegicus, UniProt Q9Z122); assay: Inhibition of rD6D-1 in spheroplasts of transformed Saccharomyces cerevisiae; conditions: [1-14C]-linoleic acid
Method: (§1) Saccharomyces cerevisiae transformed with pYr5003.1 without V5/6×His tags or pTh5002.1 with V5/6×His tags were grown in modified SC-U medium with 2% galactose to induce the expression of the gene that encodes the fatty acid delta-6-desaturase. After 16 h incubation, cells were centrifuged at 2060×g for 5 min at 4° C., washed once with distilled water and centrifuged again. The volume and weight of the cell pellet were measured Cells were suspended (1:2 w/v) in 0.1 M Tris.SO4 (pH 9.4), 10 mM DTT and incubated at 30° C. After 10 min incubation, the cell pellet was obtained by centrifugation, washed once (1:20 w/v) with 1.2 M sorbitol and suspended (1:1 w/v) in 1.2 M sorbitol, 20 mM phosphate buffer (pH 7.4) as described elsewhere (Daum et al., 1982, J. Biol. Chem., 257: 13028-13033). The 15,800× g (1 min) supernatant of Lyticase was added to the cell suspension at a concentration of 2000 U/ml and the suspension incubated at 30° C. with 50 rpm shaking. Conversion to spheroplasts was checked after 40 min incubation by diluting the suspension with distilled water followed by observation under the microscope (Schatz G. and Kovac L., 1974, Methods in Enzymology, 31A: 627-632).
(§2) Spheroplasts were harvested by centrifugation at 2060×g for 5 min at 4° C. and washed once with 1.2 M sorbitol. Spheroplasts were suspended in modified SC-U medium with 1% tergitol, 1.2 M sorbitol and 2% galactose to maintain the induction conditions and to give an OD600 reading of approximately 2.5-3.0. A 10 ml aliquot of the spheroplast suspension was transferred to a 125 ml Erlenmeyer flask and incubated with 200 μL of n-propyl gallate in ethanol (final concentration in the culture ranged between 0.7 and 14.1 mM) at 30° C. in an orbital incubator set at 270 rpm After 30 min incubation 1 μCi of [1-^14C]-alpha-linolenic or [1-^14C]-linoleic acids were added to the cultures to a final concentration of 2 μM and further incubated for 120 min. At this time point, turbidity readings at OD600 were taken, spheroplasts were harvested by centrifugation and washed with Tris buffer (100 mM, pH 8.0) containing 0.1%/o BSA. Total lipids were extracted as described below.
(§3) The radioactivity from aliquots of the supernatant, spheroplasts and whole cells was determined by liquid scintillation counting using a LS6500-Scintillation System (Beckman) prior to the lipid extraction. Total lipids were extracted from cells or spheroplasts with chloroform/methanol (2:1 v/v) according to the method of Folch et al., 1957, J. Biol. Chem., 226: 497-509. The total lipid extracts were methylated using boron trifluoride in methanol at 90° C. for 30 min.
(§4) The desaturase activity was determined by measuring the conversion of radiolabelled linoleic acid to gammna-linolenic acid (18:2n-6 to 18:3n-6) and alpha-linolenic acid to stearidonic acid (18:3n-3 to 18:4n-3). The percent inhibition was calculated as described elsewhere (Kawashima et al., 1996, Biosci. Biotech. Biochem., 60:1672-1676):
(§5) Inhibition % =(activity without the inhibitor−activity with the inhibitor)/activity without the inhibitor

[2] = molecular target: T2, hD6D-1 (with V5/6xHis tags) (Homo sapiens, UniProt O95864); assay: Inhibition of hD6D-1 in spheroplasts of transformed Saccharomyces cerevisiae; conditions: [1-14C]-alpha-linolenic acid
T2 sequence (O95864 1-444): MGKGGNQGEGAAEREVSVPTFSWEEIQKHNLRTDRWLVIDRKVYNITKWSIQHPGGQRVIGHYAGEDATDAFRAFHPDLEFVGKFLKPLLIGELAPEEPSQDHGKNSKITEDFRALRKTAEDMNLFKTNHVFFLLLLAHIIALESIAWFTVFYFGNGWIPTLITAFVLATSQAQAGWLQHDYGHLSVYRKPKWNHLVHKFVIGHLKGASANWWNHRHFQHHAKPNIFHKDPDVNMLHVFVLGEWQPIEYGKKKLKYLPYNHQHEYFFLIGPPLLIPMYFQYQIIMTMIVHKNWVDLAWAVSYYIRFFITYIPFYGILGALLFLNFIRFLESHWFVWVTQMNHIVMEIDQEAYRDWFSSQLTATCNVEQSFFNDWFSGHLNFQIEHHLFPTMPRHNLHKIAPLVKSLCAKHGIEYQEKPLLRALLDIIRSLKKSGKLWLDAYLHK
Method: as §1, §2, §3, §4, §5

delta 6 desaturase = molecular target: T3, delta 6 desaturase (Rattus norvegicus, UniProt Q9Z122); assay: Inhibition of delta 6 desaturase in rat liver microsomes incubated with alpha-linolenic or linoleic acid; format: biochemical
T3 construct: from tissue; host or cells: rat liver microsomes (female Wistar rats)
T3 sequence (Q9Z122 whole entry): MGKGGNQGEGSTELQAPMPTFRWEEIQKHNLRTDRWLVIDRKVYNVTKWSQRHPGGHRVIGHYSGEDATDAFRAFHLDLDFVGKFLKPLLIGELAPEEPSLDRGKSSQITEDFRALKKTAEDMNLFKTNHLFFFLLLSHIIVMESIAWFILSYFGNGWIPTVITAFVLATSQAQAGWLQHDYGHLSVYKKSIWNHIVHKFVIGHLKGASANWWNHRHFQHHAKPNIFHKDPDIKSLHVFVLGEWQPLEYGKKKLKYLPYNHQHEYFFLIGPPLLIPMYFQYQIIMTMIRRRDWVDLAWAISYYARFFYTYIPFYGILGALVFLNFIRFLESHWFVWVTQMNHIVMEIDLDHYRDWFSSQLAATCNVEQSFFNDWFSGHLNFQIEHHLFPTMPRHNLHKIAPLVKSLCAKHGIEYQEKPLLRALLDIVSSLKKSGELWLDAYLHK
Method: As proposed by Leikin and Brenner (Leikin A. I. and Brenner R. R., 1989, Biochim. Biophys. Acta. September 25, 1005: 187-191), the following are best conditions for the desaturation assays since the enzymes are saturated with the substrates and the reactions are linear within the incubation time. Reactions were started by adding 2 or 3 mg of microsomal protein to pre-incubated tubes containing 0.20 μCi of the substrate fatty acid at a final concentration of 33.3 μM in 1.5 ml of the homogenization solution, containing NaF (42 mM), niacinamide (0.33 mM), ATP (1.57 mM), NADH (1.01 mM) and coenzyme A (0.09 mM) as described elsewhere (Leikin A. I. and Brenner R. R., 1989, Biochim. Biophys. Acta. September 25,1005: 187-191).The tubes were vortexed vigorously and after 15 min incubation in a shaling water bath (37° C.), the reactions were stopped by the addition of 2 ml of 10% (w/v) KOH in ethanol. Lipids in the incubation mixture were saponified at 80° C. for 45 min under N2. The samples were then left in ice for 5 min before acidification. The fatty acids were extracted with hexane and esterified with BF3/methanol at 90° C. for 30 min (Morrison W. R. and Smith L. M., 1964, J. Lipid Res., 5: 600-608).
Hepatic microsomes were obtained from female Wistar rats by differential centrifigation as described in Example 3.
Incubations were performed as described in Example 3. N-propyl gallate was added to the incubation medium to a final concentration that ranged from 0.02 to 0.32 mM.

[3] = molecular target: T2, hD6D-1 (with V5/6xHis tags); assay: Inhibition of hD6D-1 in whole cells of transformed Saccharomyces cerevisiae; format: cell-based; design: expressed in transfected cells; host or cells: Saccharomyces cerevisiae INVSc1 transformed with pTh5002.1 (pYES2/CT); conditions: [1-14C]-alpha-linolenic acid
Method: Transformed Saccharomyces cerevisiae pTh5002.1 with V5/6xHis tags were incubated in a 125 ml Erlenmeyer flask containing 9 ml of modified SC-U medium with 1% tergitol (O.D.6000.4, approximately 3.2×10^6 cells) and 200 μl of 7, 14 or 28 mM n-propyl gallate in ethanol. After 1 h incubation in an orbital incubator at 270 rpm and 30° C., 1 μCi of potassium salts of [1-^14C]-linoleic or [1-^14C]-alpha-linolenic acids (dissolved in modified SC-U medium and 1% tergitol) were added to the cell suspension to a final concentration of 2 μM. After 5 h incubation with the inhibitor, cells reached the log phase and the transgene expression was induced with the addition of 1 ml of galactose to a final concentration of 2%. Yeast were further incubated for 19 h (OD600 range 7.2-9.3) until they were harvested by centrifugation at 5000×g for 10 minutes at 4° C. Cell were washed with Tris buffer (100 mM, pH 8.0) containing 0.1% BSA and total lipids were extracted as described below.
The radioactivity from aliquots of the supernatant, spheroplasts and whole cells was determined by liquid scintillation counting using a LS6500-Scintillation System (Beckman) prior to the lipid extraction. […]
The desaturase activity was determined by measuring the conversion of radiolabelled linoleic acid to gammna-linolenic acid (18:2n-6 to 18:3n-6) and alpha-linolenic acid to stearidonic acid (18:3n-3 to 18:4n-3). […]

[4] = molecular target: T2, hD6D-1 (with V5/6xHis tags)
Method: as §1, §2, §3, §4, §5

fatty acid desaturases = conditions: Kawashima et al., 1996; cited from earlier work
[5] = system: whole cells of transformed Saccharomyces cerevisiae; assay: O.D.600 and substrate radioactivity recovered in whole yeast cells; conditions: hD6D-1 whole cells
Method: Transformed Saccharomyces cerevisiae pTh5002.1 with V5/6xHis tags were incubated in a 125 ml Erlenmeyer flask containing 9 ml of modified SC-U medium with 1% tergitol (O.D.6000.4, approximately 3.2×10^6 cells) and 200 μl of 7, 14 or 28 mM n-propyl gallate in ethanol. After 1 h incubation in an orbital incubator at 270 rpm and 30° C., 1 μCi of potassium salts of [1-^14C]-linoleic or [1-^14C]-alpha-linolenic acids (dissolved in modified SC-U medium and 1% tergitol) were added to the cell suspension to a final concentration of 2 μM. After 5 h incubation with the inhibitor, cells reached the log phase and the transgene expression was induced with the addition of 1 ml of galactose to a final concentration of 2%.

[6] = system: spheroplasts of transformed Saccharomyces cerevisiae; assay: O.D.600 and substrate radioactivity recovered in spheroplasts (cytotoxicity, uptake); format: cell-based
Description: Total lipids were extracted as described below.

[7] = molecular target: T1, rD6D-1 (without V5/6xHis tags)
Method: as §1, §2, §3, §4, §5

T1 sequence (Q9Z122 whole entry): as above

SMILES: CCCOC(=O)c1cc(O)c(O)c(O)c1 [n-propyl gallate, Propyl ester of 3,4,5-trihydroxybenzoic acid]
- % of inhibition ([1]; inhibitor 0.7 mM): 8.9%
- % of inhibition ([1]; inhibitor 1.4 mM): 39.2%
- % of inhibition ([1]; inhibitor 2.8 mM): 77.4%
- % of inhibition ([1]; inhibitor 14.1 mM): 100%
- % of inhibition ([2]; inhibitor 0.7 mM): 11.6%
- % of inhibition ([2]; inhibitor 1.4 mM): 18.8%
- % of inhibition ([2]; inhibitor 2.8 mM): 56.4%
- % of inhibition ([2]; inhibitor 14.1 mM): 100%
- % of inhibition 18:2n-6 → 18:3n-6 (delta 6 desaturase; inhibitor 0.02 mM): 18.0%
- % of inhibition 18:3n-3 → 18:4n-3 (delta 6 desaturase; inhibitor 0.02 mM): 28.7%
- % of inhibition 18:2n-6 → 18:3n-6 (delta 6 desaturase; inhibitor 0.04 mM): 32.0%
- % of inhibition 18:3n-3 → 18:4n-3 (delta 6 desaturase; inhibitor 0.04 mM): 42.5%
- % of inhibition 18:2n-6 → 18:3n-6 (delta 6 desaturase; inhibitor 0.08 mM): 64.5%
- % of inhibition 18:3n-3 → 18:4n-3 (delta 6 desaturase; inhibitor 0.08 mM): 54.2%
- % of inhibition 18:2n-6 → 18:3n-6 (delta 6 desaturase; inhibitor 0.16 mM): 82.6%
- % of inhibition 18:3n-3 → 18:4n-3 (delta 6 desaturase; inhibitor 0.16 mM): 71.3%
- % of inhibition 18:2n-6 → 18:3n-6 (delta 6 desaturase; inhibitor 0.32 mM): 98.7%
- % of inhibition 18:3n-3 → 18:4n-3 (delta 6 desaturase; inhibitor 0.32 mM): 79.5%
- % of inhibition ([3]; inhibitor 7 mM): 36.7%
- % of inhibition ([3]; inhibitor 14 mM): 73.6%
- inhibition [4]: 82.3%
- Mode of inhibition (fatty acid desaturases): noncompetitive inhibitor
- O.D.600 ([5]; inhibitor 7 mM): 9.3
- O.D.600 ([5]; inhibitor 14 mM): 7.2
- O.D.600 ([5]; inhibitor 28 mM): 0
- Concentrations that may be toxic for the spheroplasts ([6]; cell number slightly decreased, radioactivity recovered substantially reduced): > 5600 µM
- O.D.600 ([6]; hD6D-1 spheroplasts, inhibitor 0.7 mM): 2.2
- O.D.600 ([6]; hD6D-1 spheroplasts, inhibitor 1.4 mM): 3.4
- O.D.600 ([6]; hD6D-1 spheroplasts, inhibitor 2.8 mM): 3.1
- O.D.600 ([6]; hD6D-1 spheroplasts, inhibitor 5.6 mM): 3.5
- O.D.600 ([6]; hD6D-1 spheroplasts, inhibitor 14.1 mM): 2.5
- Cytotoxicity to spheroplasts ([6]; n-propyl gallate 0.7-5.6 mM, constant O.D.600, similar radioactivity recovered): not cytotoxic
- O.D.600 ([6]; rD6D-1 spheroplasts, inhibitor 0.7 mM): 2.5
- O.D.600 ([6]; rD6D-1 spheroplasts, inhibitor 1.4 mM): 2.6
- O.D.600 ([6]; rD6D-1 spheroplasts, inhibitor 2.8 mM): 2.5
- O.D.600 ([6]; rD6D-1 spheroplasts, inhibitor 5.6 mM): 2.6
- O.D.600 ([6]; rD6D-1 spheroplasts, inhibitor 14.1 mM): 2.3
- inhibition [7]: 100%
